SMILES	melting point
Cc1cc2cc(CN3CCCC3)cnc2cc1NC(=O)c1ccc(-c2ccc(C(F)(F)F)cc2)cc1 [Example 215, N-[6-methyl-3-(1-pyrrolidinylmethyl)-7-quinolinyl]-4′-(trifluoromethyl)[1,1′-biphenyl]-4-carboxamide]	216 to 219 °C
Cc1c(NC(=O)c2ccc(-c3ccc(Cl)cc3)c(F)c2)ccc2cc(CN3CCCC3)cnc12 [Example 154, 4′-chloro-2-fluoro-N-[8-methyl-3-(1-pyrrolidinylmethyl)-7-quinolinyl][1,1′-biphenyl]-4-carboxamide]	190 to 192 °C
COc1cc2cc(CN3CCCCC3)cnc2cc1NC(=O)c1ccc(-c2ccc(Cl)cc2)cc1 [Example 24, 4′-chloro-N-[6-methoxy-3-(1-piperidinylmethyl)-7-quinolinyl][1,1′-biphenyl]-4-carboxamide]	236 °C (dec.)
Cc1c(NC(=O)c2ccc(-c3ccccc3)c(F)c2)ccc2cc(CN3CCCC3)cnc12 [Example 151, 2-fluoro-N-[8-methyl-3-(1-pyrrolidinylmethyl)-7-quinolinyl][1,1′-biphenyl]-4-carboxamide]	156 to 158 °C
Cc1cc2cc(CN3CCCC3)cnc2cc1NC(=O)c1ccc(-c2ccc(F)c(F)c2)cc1 [Example 216, 3′,4′-difluoro-N-[6-methyl-3-(1-pyrrolidinylmethyl)-7-quinolinyl][1,1′-biphenyl]-4-carboxamide]	220 to 223 °C
CCNC(=O)CCCC1CCN(Cc2cnc3cc(NC(=O)c4ccc(-c5ccc(F)cc5)cc4)ccc3c2)CC1 [Example 47, N-[3-({4-[4-(ethylamino)-4-oxobutyl]-1-piperidinyl}methyl)-7-quinolinyl]-4′-fluoro[1,1′-biphenyl]-4-carboxamide]	209 to 213 °C
Cc1cc2cc(CN3CCCC3)cnc2cc1NC(=O)c1ccc(-c2ccccc2Cl)cc1.Cl	283 °C
Cc1c(NC(=O)c2ccc(-c3ccc(F)cc3)cc2)ccc2cc(CN3CCC(CCCC(=O)N(C)C)CC3)cnc12 [Example 208, N-[3-({4-[4-(dimethylamino)-4-oxobutyl]-1-piperidinyl}methyl)-8-methyl-7-quinolinyl]-4′-fluoro[1,1′-biphenyl]-4-carboxamide]	202 to 204 °C
O=C(Nc1ccc2cc(CN3CCCC3)cnc2c1)c1ccc(-c2ccc(Cl)cc2)nc1 [Example 11, 6-(4-chlorophenyl)-N-[3-(1-pyrrolidinylmethyl)-7-quinolinyl]nicotinamide]	223 to 225 °C
Cc1c(NC(=O)c2ccc(-c3ccc(C(F)(F)F)cc3)cc2)ccc2cc(CN3CCCC3)cnc12 [Example 101, N-[8-methyl-3-(1-pyrrolidinylmethyl)-7-quinolinyl]-4′-(trifluoromethyl)[1,1′-biphenyl]-4-carboxamide]	220 to 222 °C
O=C(Nc1ccc2cc(CN3CCCC3)cnc2c1F)c1ccc(-c2ccccc2)cc1F [Example 77, 3-fluoro-N-[8-fluoro-3-(1-pyrrolidinylmethyl)-7-quinolinyl][1,1′-biphenyl]-4-carboxamide]	136 to 137 °C
Cc1ccc(-c2ccc(C(=O)Nc3cc4ncc(CN5CCCC5)cc4cc3F)c(F)c2)cc1 [Example 61, 3-fluoro-N-[6-fluoro-3-(1-pyrrolidinylmethyl)-7-quinolinyl]-4′-methyl[1,1′-biphenyl]-4-carboxamide]	179 to 181 °C
COc1ccc(-c2ccc(C(=O)Nc3cc4ncc(CN5CCCC5)cc4cc3C)c(F)c2)cc1 [Example 227, 3-fluoro-4′-methoxy-N-[6-methyl-3-(1-pyrrolidinylmethyl)-7-quinolinyl][1,1′-biphenyl]-4-carboxamide]	187 to 190 °C
Cc1c(NC(=O)c2ccc(-c3ccc(OC(F)(F)F)cc3)cc2)ccc2cc(CN3CCCC3)cnc12 [Example 103, N-[8-methyl-3-(1-pyrrolidinylmethyl)-7-quinolinyl]-4′-(trifluoromethoxy)[1,1′-biphenyl]-4-carboxamide]	200 to 202 °C
Cc1ccc(-c2ccc(C(=O)Nc3ccc4cc(CN5CCCC5)cnc4c3C)cc2)cc1 [Example 20, 4′-methyl-N-[8-methyl-3-(1-pyrrolidinylmethyl)-7-quinolinyl][1,1′-biphenyl]-4-carboxamide]	177 to 179 °C
CCC(=O)Oc1ccc(C(=O)Nc2ccc3cc(CN4CCCC4)cnc3c2C)cc1 [Example 330, 4-({[8-methyl-3-(1-pyrrolidinylmethyl)-7-quinolinyl]amino}carbonyl)phenyl propionate]	146 to 147 °C
COc1ccc(-c2ccc(C(=O)Nc3cc4ncc(CN5CCCC5)cc4cc3C)cc2F)cc1 [Example 236, 2-fluoro-4′-methoxy-N-[6-methyl-3-(1-pyrrolidinylmethyl)-7-quinolinyl][1,1′-biphenyl]-4-carboxamide]	165 to 167 °C
Cc1cc2cc(CN3CCC(CC(N)=O)CC3)cnc2cc1NC(=O)c1ccc(-c2ccc(F)cc2)cc1 [Example 270, N-(3-{[4-(2-amino-2-oxoethyl)-1-piperidinyl]methyl}-6-methyl-7-quinolinyl)-4′-fluoro[1,1′-biphenyl]-4-carboxamide]	249 °C

SMILES	melting point
Cc1cc2cc(CN3CCCC3)cnc2cc1NC(=O)c1ccc(-c2ccccc2)cc1F [Example 226, 3-fluoro-N-[6-methyl-3-(1-pyrrolidinylmethyl)-7-quinolinyl][1,1′-biphenyl]-4-carboxamide]	180 to 183 °C
CCN(CC)C(=O)CCCC1CCN(Cc2cnc3cc(NC(=O)c4ccc(-c5ccc(F)cc5)cc4)c(C)cc3c2)CC1 [Example 260, N-[3-({4-[4-(diethylamino)-4-oxobutyl]-1-piperidinyl}methyl)-6-methyl-7-quinolinyl]-4′-fluoro[1,1′-biphenyl]-4-carboxamide]	181 °C
O=C(Nc1ccc2cc(CN3CCCC3)cnc2c1)c1ccc(-c2ccc(Cl)cc2)cc1F [Example 85, 4′-chloro-3-fluoro-N-[3-(1-pyrrolidinylmethyl)-7-quinolinyl][1,1′-biphenyl]-4-carboxamide]	232 °C
Cc1cc2cc(CN3CCC(CCCC(=O)N(C)C)CC3)cnc2cc1NC(=O)c1ccc(-c2ccc(F)cc2)cc1 [Example 262, N-[3-({4-[4-(dimethylamino)-4-oxobutyl]-1-piperidinyl}methyl)-6-methyl-7-quinolinyl]-4′-fluoro[1,1′-biphenyl]-4-carboxamide]	194 °C
CCN(CC)C(=O)CCCC1CCN(Cc2cnc3c(C)c(NC(=O)c4ccc(-c5ccc(F)cc5)cc4)ccc3c2)CC1 [Example 210, N-[3-({4-[4-(diethylamino)-4-oxobutyl]-1-piperidinyl}methyl)-8-methyl-7-quinolinyl]-4′-fluoro[1,1′-biphenyl]-4-carboxamide]	145 to 146 °C
CCc1c(NC(=O)c2ccc(-c3ccc(F)cc3)cc2)ccc2cc(CN3CCCC3)cnc12 [Example 83, N-[8-ethyl-3-(1-pyrrolidinylmethyl)-7-quinolinyl]-4′-fluoro[1,1′-biphenyl]-4-carboxamide]	266 to 267 °C
O=C(Nc1cc2ncc(CN3CCCC3)cc2cc1Cl)c1ccc(-c2ccc(Cl)cc2)cc1 [Example 25, 4′-chloro-N-[6-chloro-3-(1-pyrrolidinylmethyl)-7-quinolinyl][1,1′-biphenyl]-4-carboxamide]	188 °C (dec.)
COc1cc2cc(CN3CCCC3)cnc2cc1NC(=O)c1ccc(-c2ccc(Cl)cc2)cc1 [Example 23, 4′-chloro-N-[6-methoxy-3-(1-pyrrolidinylmethyl)-7-quinolinyl][1,1′-biphenyl]-4-carboxamide]	271 °C (dec.)
CCNC(=O)CCCC1CCN(Cc2cnc3cc(NC(=O)c4ccc(-c5ccc(F)cc5)cc4)c(C)cc3c2)CC1 [Example 261, N-[3-({4-[4-(ethylamino)-4-oxobutyl]-1-piperidinyl}methyl)-6-methyl-7-quinolinyl]-4′-fluoro[1,1′-biphenyl]-4-carboxamide]	240 °C
Cc1ccc(-c2ccc(C(=O)Nc3ccc4cc(CN5CCCCCC5)cnc4c3)cc2)cc1 [Example 28, N-[3-(1-azepanylmethyl)-7-quinolinyl]-4′-methyl[1,1′-biphenyl]-4-carboxamide]	209 °C
COc1ccc(-c2ccc(C(=O)Nc3ccc4cc(CN5CCCC5)cnc4c3C)cc2)cc1 [Example 18, 4′-methoxy-N-[8-methyl-3-(1-pyrrolidinylmethyl)-7-quinolinyl][1,1′-biphenyl]-4-carboxamide]	210 to 213 °C
Cc1c(NC(=O)c2ccc(-c3ccccc3F)cc2F)ccc2cc(CN3CCCC3)cnc12 [Example 148, 2′,3-difluoro-N-[8-methyl-3-(1-pyrrolidinylmethyl)-7-quinolinyl][1,1′-biphenyl]-4-carboxamide]	159 to 160 °C
Cc1cccc(-c2ccc(C(=O)Nc3ccc4cc(CN5CCCC5)cnc4c3C)cc2)c1 [Example 109, 3′-methyl-N-[8-methyl-3-(1-pyrrolidinylmethyl)-7-quinolinyl][1,1′-biphenyl]-4-carboxamide]	151 to 152 °C
Cc1cc2cc(CN3CCCC3)cnc2cc1NC(=O)c1ccc(-c2ccccc2)c(F)c1 [Example 232, 2-fluoro-N-[6-methyl-3-(1-pyrrolidinylmethyl)-7-quinolinyl][1,1′-biphenyl]-4-carboxamide]	167 to 170 °C
COc1c(NC(=O)c2ccc(-c3ccc(F)cc3)cc2)ccc2cc(CN3CCCC3)cnc12 [Example 81, 4′-fluoro-N-[8-methoxy-3-(1-pyrrolidinylmethyl)-7-quinolinyl][1,1′-biphenyl]-4-carboxamide]	142 to 144 °C
Cc1ccc(-c2ccc(C(=O)Nc3cc4ncc(CN5CCCC5)cc4cc3C)c(F)c2)cc1 [Example 229, 3-fluoro-4′-methyl-N-[6-methyl-3-(1-pyrrolidinylmethyl)-7-quinolinyl][1,1′-biphenyl]-4-carboxamide]	176 to 179 °C
Cc1c(NC(=O)c2ccc(-c3ccc(F)cc3)nc2)ccc2cc(CN3CCCC3)cnc12 [Example 97, 6-(4-fluorophenyl)-N-[8-methyl-3-(1-pyrrolidinylmethyl)-7-quinolinyl]nicotinamide]	207 to 209 °C

— patent publication US7183415B2, “Quinoline compound” (Takeda Pharmaceutical Company Limited, priority 2001, dated 2007)
